In patent US11149066B2, “Thrombospondin 1-binding peptide” (DAIICHI SANKYO COMPANY, LIMITED, priority 2016, dated 2021):
Positions of bridges follow the written chain, without caps; N, C: chain ends. Non-standard residues stand in square brackets, D forms with d. Residues, ends and D or L forms follow the SMILES beside them. 2Nal = N[C@@H](Cc1ccc2ccccc2c1)C(=O)O; Nle = CCCC[C@H](N)C(=O)O

What was measured:
human TSP1 [1] = biological target: T1, human TSP1 (Homo sapiens, UniProt P07996); assay: Interaction analysis by SPR (Biacore T200); format: binding; settings: single-cycle kinetics, 25° C., KD from ka and kd
Procedure: (Test Example 2) Interaction Analysis by SPR
Interaction analysis by SPR was performed using Biacore T200 (produced by GE Healthcare).
I. Immobilization of Recombinant-hTSP1
First, 500 μM NiCl2 was injected over an NTA-Chip (produced by GE Healthcare, BR100532) at a flow rate of 5 μL/min. for 1 minute to thereby activate NTA groups. Then, an EDC/NHS mixture was injected at a flow rate of 10 μL/min. for 7 minutes to thereby activate the carboxyl groups of dextran. Recombinant-hTSP1 was injected at a flow rate of 10 μL/min. for 7 minutes to immobilize the TSP1 on the substrate surfaces with activated NTA and carboxyl groups. Ethanolamine was injected at a flow rate of 10 μL/min. for 7 minutes to thereby deactivate unreacted, activated carboxyl groups.
The immobilization buffer used was prepared by diluting 10×HBS-P+(produced by GE Healthcare, BR100671) to 1-fold and adding 5 mM CaCl2.
The reagents EDC/NHS/ethanolamine used were included in the Amine-coupling kit (BR100050) commercially available from GE Healthcare.
The measurement buffer was prepared based on the following composition profile:
The measurement was performed in the following steps.
For the purpose of equilibrating substrate surfaces, the measurement buffer was injected under the following conditions:
contact time: 60 sec., dissociation time: 120 sec., flow rate: 50 μL/min., temperature: 25° C.
The injection under the same conditions was repeated five times to ensure equilibration.
Since Biacore T200 is highly responsive to change in DMSO concentrations, DMSO solutions were sequentially injected at concentrations of 4%, 4.4%, 4.8%, 5.2%, 5.6%, and 6% to correct for DMSO effects.
The method adopted for sample measurement was a single-cycle kinetics method which is effective for samples showing low dissociative behavior. The advantage of this method is that since sample solutions at different concentration regions are injected in the same cycle, the influence between different cycles in association with low dissociation can be ignored in the analysis.
A 3-fold diluted series of sample solutions were prepared in five concentrations (100, 33, 11, 3.7 and 1.2 nM), and sequentially injected at a flow rate of 50 μL/min. for 3 minutes in the order from lowest to highest concentration. After the highest concentration of diluted solution was injected, a dissociation time of 20 to 30 minutes was spent.
Before samples were measured, the measurement buffer was injected alone under the same conditions to establish a baseline.
The analysis was conducted using the evaluation software provided with Biacore T100 and T200. A DMSO correction curve obtained by solvent correction measurements was applied for the analysis. Kinetics fitting was done on the difference data obtained by subtracting the baseline data from sample measurement data.
KD values were calculated based on the association rate constant (ka) and dissociation rate constant (kd).
Target sequence in this assay (P07996 19-1170): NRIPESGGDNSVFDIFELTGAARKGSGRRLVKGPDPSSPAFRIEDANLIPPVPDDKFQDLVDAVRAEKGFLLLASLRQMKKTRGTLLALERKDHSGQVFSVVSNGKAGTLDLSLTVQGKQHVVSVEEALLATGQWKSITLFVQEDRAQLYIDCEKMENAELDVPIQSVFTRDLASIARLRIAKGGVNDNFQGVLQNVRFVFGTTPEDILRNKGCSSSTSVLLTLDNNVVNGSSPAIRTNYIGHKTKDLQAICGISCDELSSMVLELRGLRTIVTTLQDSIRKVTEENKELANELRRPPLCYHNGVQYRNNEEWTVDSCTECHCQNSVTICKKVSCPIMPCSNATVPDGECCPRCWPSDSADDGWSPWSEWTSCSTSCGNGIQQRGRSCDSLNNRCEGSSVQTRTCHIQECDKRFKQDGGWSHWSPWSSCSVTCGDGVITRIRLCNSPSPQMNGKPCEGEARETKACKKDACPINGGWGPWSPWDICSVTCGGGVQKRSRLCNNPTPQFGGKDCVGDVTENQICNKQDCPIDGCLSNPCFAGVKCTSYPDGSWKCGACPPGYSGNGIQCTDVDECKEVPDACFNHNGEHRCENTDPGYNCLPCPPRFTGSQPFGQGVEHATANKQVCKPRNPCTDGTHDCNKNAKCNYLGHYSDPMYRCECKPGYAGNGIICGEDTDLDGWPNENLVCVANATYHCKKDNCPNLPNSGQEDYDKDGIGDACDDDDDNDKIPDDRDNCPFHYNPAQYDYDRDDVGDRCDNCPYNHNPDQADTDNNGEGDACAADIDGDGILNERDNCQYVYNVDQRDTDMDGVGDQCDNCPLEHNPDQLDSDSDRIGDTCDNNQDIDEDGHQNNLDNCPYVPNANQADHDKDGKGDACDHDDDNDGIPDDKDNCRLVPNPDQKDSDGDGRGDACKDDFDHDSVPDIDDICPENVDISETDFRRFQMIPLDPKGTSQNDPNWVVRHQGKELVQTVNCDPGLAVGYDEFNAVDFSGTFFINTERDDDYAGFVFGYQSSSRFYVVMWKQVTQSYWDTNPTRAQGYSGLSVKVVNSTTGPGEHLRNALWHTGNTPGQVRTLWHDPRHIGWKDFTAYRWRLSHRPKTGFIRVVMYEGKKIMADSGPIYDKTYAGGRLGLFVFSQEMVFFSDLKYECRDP

human TSP1 [2] = biological target: T1, human TSP1; assay: Cell adhesion inhibition assay (HUVEC adhesion to TSP1-coated plate); format: cell-based; settings: HUVEC adhesion to human platelet thrombospondin-coated plate, 2.5 hours, CellTiter-Glo; read-out: Cell adhesion IC50
Outline: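 Plates coated overnight at 4 °C with 10 μg/mL human platelet TSP1 in TBS + 2 mM CaCl2, blocked with Lipidure, then preincubated 15–30 min with samples in DMEM/0.5% BSA. HUVECs (10000 cells/well) adhered for 2.5 h at 37 °C; adherent cells quantified by CellTiter-Glo luminescence and IC50 (nM) calculated.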
Target sequence in this assay (P07996 19-1170 limits assumed): as the sequence (P07996 19-1170) above

C57BL/6 mice = assay: Blood flow improvement tests (femoral artery/vein ligation and excision, laser Doppler); format: in vivo; settings: after 7 days of surgery; for % change (vs. vehicle): blood flow ratio ischemia/nonischemia; for %, ischemia/nonischemia: blood flow ratio of ischemic limb to non-ischemic limb, laser Doppler
Description: (Test Example 3) Blood Flow Improvement Tests
Seven to nine-week-old male C57BL/6 mice were purchased from Charles River Laboratories Japan Inc., and acclimated over one week by feeding with a FR-2 solid diet (produced by Funabashi Farm Co., Ltd.). The rearing facility switched between light and dark modes in a 12-hour cycle with light turning on at 7 a.m and turning off at 7 p.m. Under isofluorane inhalation anaesthesia, the left thighs of the mice were dissected, and the superficial femoral arteries and veins (from just below the deep femoral arteries to the popliteal artery and vein) were ligated and excised. After animal models were made, the test substances (Compounds 24, 28, 40 to 45, and 58) were each dissolved in a solution of 20 mM lactic acid and 5% (w/v) Lutrol, and intraperitoneally injected into mice once daily.
(Blood Flow Improvement Test 1)
Compound 24 (10 mg/kg)-treated group
(Blood Flow Improvement Test 2)
Compound 28 (10 mg/kg)-treated group
(Blood Flow Improvement Test 3)
Compound 40 (10 mg/kg)-treated group
Compound 41 (10 mg/kg)-treated group
(Blood Flow Improvement Test 4)
Compound 42 (10 mg/kg)-treated group
Compound 43 (10 mg/kg)-treated group
Compound 44 (10 mg/kg)-treated group
Compound 45 (10 mg/kg)-treated group
(Blood Flow Improvement Test 5)
Compound 58 (10 mg/kg)-treated group
Blood flows were measured in ischemic (left) and non-ischemic (right) limbs using a laser Doppler perfusion imager (LDPI; PIM III, Perimed, Inc.). Blood flow values were evaluated by the ratio of ischemic limb flow to non-ischemic limb flow.
Blood flow values from the mice were the lowest immediately after surgery and then gradually recovered. All of the test substances investigated in the animal models of this study improved blood flow recovery after surgery as compared to vehicle treatment. After 7 days of surgery, the blood flows in the test substance-treated groups were higher than in the vehicle-treated mice.

CC(C)[C@@H]1NC(=O)[C@H](Cc2c[nH]c3ccccc23)NC(=O)[C@H](CCCCN)NC(=O)[C@H](C(C)C)NC(=O)[C@H](Cc2c[nH]c3ccccc23)NC(=O)[C@H](CC(N)=O)NC(=O)[C@H](CCCNC(=N)N)NC(=O)CNC(=O)[C@H](CO)NC(=O)[C@H](CCCNC(=N)N)NC(=O)[C@H](Cc2ccccc2)NC(=O)CSC[C@@H](C(N)=O)NC1=O [Compound 6] ({CH2CO}-FRSGRNWVKWVC-NH2; thioether N-12)
Kd (human TSP1 [1]): 0.44 nM
IC50 (human TSP1 [2]): 27.3 nM

CC[C@H](C)[C@@H]1NC(=O)[C@H](Cc2ccccc2)NC(=O)CSC[C@@H](C(N)=O)NC(=O)[C@H](C(C)C)NC(=O)[C@H](Cc2c[nH]c3ccccc23)NC(=O)[C@H](CCCCN)NC(=O)[C@H](C(C)C)NC(=O)[C@H](Cc2c[nH]c3ccccc23)NC(=O)[C@H](CC(N)=O)NC(=O)[C@H](CCCCN)NC(=O)CNC(=O)[C@H](CO)NC1=O [Compound 7] ({CH2CO}-FISGKNWVKWVC-NH2; thioether N-12)
Kd (human TSP1 [1]): 0.12 nM

CC[C@H](C)[C@@H]1NC(=O)[C@H](Cc2ccc3ccccc3c2)NC(=O)CSC[C@@H](C(N)=O)NC(=O)[C@H](C(C)C)NC(=O)[C@H](Cc2c[nH]c3ccccc23)NC(=O)[C@H](CCCCN)NC(=O)[C@H](C(C)C)NC(=O)[C@H](Cc2c[nH]c3ccccc23)NC(=O)[C@H](CC(N)=O)NC(=O)[C@H](CCCNC(=N)N)NC(=O)CNC(=O)[C@H](CO)NC1=O [Compound 24] ({CH2CO}-[2Nal]ISGRNWVKWVC-NH2; thioether N-12)
% change (vs. vehicle) (C57BL/6 mice): 4.9%
%, ischemia/nonischemia (C57BL/6 mice): 41.20%
Kd (human TSP1 [1]): 0.12 nM

CC[C@H](C)[C@@H]1NC(=O)[C@H](Cc2ccc3ccccc3c2)NC(=O)CSC[C@@H](C(N)=O)NC(=O)[C@H](C(C)C)NC(=O)[C@H](Cc2c[nH]c3ccccc23)NC(=O)[C@H](CCCCN)NC(=O)[C@H](C(C)C)NC(=O)[C@H](Cc2c[nH]c3ccccc23)NC(=O)[C@H](CC(N)=O)NC(=O)[C@H](Cc2c[nH]cn2)NC(=O)CNC(=O)[C@H](CO)NC1=O [Compound 42] ({CH2CO}-[2Nal]ISGHNWVKWVC-NH2; thioether N-12)
% change (vs. vehicle) (C57BL/6 mice): 27.0%
%, ischemia/nonischemia (C57BL/6 mice): 47.40%
Kd (human TSP1 [1]): 0.44 nM

CC[C@H](C)[C@@H]1NC(=O)[C@H](Cc2ccc3ccccc3c2)NC(=O)CSC[C@@H](C(N)=O)NC(=O)[C@H](C(C)C)NC(=O)[C@H](Cc2c[nH]c3ccccc23)NC(=O)[C@H](CCCCN)NC(=O)[C@H](C(C)C)NC(=O)[C@H](Cc2c[nH]c3ccccc23)NC(=O)[C@H](CC(N)=O)NC(=O)[C@H](CCCCN)NC(=O)CNC(=O)[C@H](CO)NC1=O [Compound 43] ({CH2CO}-[2Nal]ISGKNWVKWVC-NH2; thioether N-12)
% change (vs. vehicle) (C57BL/6 mice): 30.9%
%, ischemia/nonischemia (C57BL/6 mice): 48.86%
Kd (human TSP1 [1]): 0.13 nM
IC50 (human TSP1 [2]): 9.2 nM

CC[C@H](C)[C@@H]1NC(=O)[C@H](Cc2ccc3ccccc3c2)NC(=O)CSC[C@@H](C(N)=O)NC(=O)[C@H](C(C)C)NC(=O)[C@H](Cc2c[nH]c3ccccc23)NC(=O)[C@H](CCCCN)NC(=O)[C@H](C(C)C)NC(=O)[C@H](Cc2c[nH]c3ccccc23)NC(=O)[C@H](CC(N)=O)NC(=O)[C@H](CO)NC(=O)CNC(=O)[C@H](CO)NC1=O [Compound 44] ({CH2CO}-[2Nal]ISGSNWVKWVC-NH2; thioether N-12)
% change (vs. vehicle) (C57BL/6 mice): 10.5%
%, ischemia/nonischemia (C57BL/6 mice): 41.25%
IC50 (human TSP1 [2]): 30.3 nM

CCCC[C@@H]1NC(=O)[C@H](Cc2c[nH]c3ccccc23)NC(=O)[C@H](CC(=O)O)NC(=O)[C@H](CCCNC(=N)N)NC(=O)CNC(=O)[C@H](CO)NC(=O)[C@H]([C@@H](C)CC)NC(=O)[C@H](Cc2ccc3ccccc3c2)NC(=O)CSC[C@@H](C(N)=O)NC(=O)[C@H](C(C)C)NC(=O)[C@H](Cc2c[nH]c3ccccc23)NC(=O)[C@H](CCCCN)NC1=O [Compound 45] ({CH2CO}-[2Nal]ISGRDW[Nle]KWVC-NH2; thioether N-12)
% change (vs. vehicle) (C57BL/6 mice): 76.0%
%, ischemia/nonischemia (C57BL/6 mice): 65.70%
Kd (human TSP1 [1]): 0.13 nM

CCCC[C@@H]1NC(=O)[C@H](Cc2c[nH]c3ccccc23)NC(=O)[C@H](CC(=O)O)NC(=O)[C@H](CCCCN)NC(=O)CNC(=O)[C@H](CO)NC(=O)[C@H]([C@@H](C)CC)NC(=O)[C@H](Cc2ccc3ccccc3c2)NC(=O)CSC[C@@H](C(N)=O)NC(=O)[C@H](C(C)C)NC(=O)[C@H](Cc2c[nH]c3ccccc23)NC(=O)[C@H](CCCNC(=N)N)NC1=O [Compound 58] ({CH2CO}-[2Nal]ISGKDW[Nle]RWVC-NH2; thioether N-12)
% change (vs. vehicle) (C57BL/6 mice): 85.5%
%, ischemia/nonischemia (C57BL/6 mice): 69.00%
Kd (human TSP1 [1]): 0.091 nM
IC50 (human TSP1 [2]): 15.9 nM
